Experiments:
[1] = system: barnyardgrass; test: Test F postemergence; assay type: in vivo, Echinochloa crus-galli; conditions: scale 0 to 100
From the text: (§1) Seeds of plant species selected from corn (Zea mays), soybean (Glycine max), velvetleaf (Abutilon theophrasti), lambsquarters (Chenopodium album), wild poinsettia (Euphorbia heterophylla), pigweed, palmer (palmer pigweed, Amaranthus palmeri), common waterhemp (Amaranthus rudis), surinam grass (Brachiaria decumbens), large crabgrass (Digitaria sanguinalis), crabgrass, Brazil (Brazilian crabgrass, Digitaria horizontalis), fall panicum (Panicum dichotomiflorum), giant foxtail (Setaria faberii), green foxtail (Setaria viridis), goosegrass (Eleusine indica), johnsongrass (Sorghum halepense), common ragweed (Ambrosia elation), barnyardgrass (Echinochloa crus-galli), southern sandbur (Cenchrus echinatus), arrowleaf sida (Sida rhombifolia), Italian ryegrass (Lolium multiflorum), dayflower, VA (Virginia (VA) dayflower, Commelina virginica), field bindweed (Convolvulus arvensis), cocklebur (common cocklebur, Xanthium strumarium), morningglory (Ipomoea coccinea), nightshade (eastern black nightshade, Solanum ptycanthum), kochia (Kochia scoparia), yellow nutsedge (Cyperus esculentus), and hairy beggarticks (Bidens pilosa), were planted into a silt loam soil and treated preemergence with test chemicals formulated in a non-phytotoxic solvent mixture which included a surfactant.
(§2) At the same time, plants from these crop and weed species and also horseweed (Canada horseweed, Conyza canadensis), smartweed (ladysthumb smartweed, Polygonum persicaria), waterhemp_RES1, (ALS & Triazine resistant common waterhemp, Amaranthus rudis), and waterhemp_RES2, (ALS & HPPD resistant common waterhemp, Amaranthus rudis) were treated with postemergence applications of test chemicals formulated in the same manner. Plants ranged in height from 2 to 18 cm for postemergence treatments (1- to 4-leaf stage). Treated plants and controls were maintained in a greenhouse for 14 to 21 days, after which time all species were compared to controls and visually evaluated. Plant response ratings, summarized in Table F, are based on a scale of 0 to 100 where 0 is no effect and 100 is complete control. A dash (-) response means no test result.

[2] = system: sandbur; test: Test E preemergence; assay type: in vivo, Cenchrus echinatus; conditions: 21 days, scale 0 to 100
From the text: (§3) Seeds of plant species selected from bermudagrass (Cynodon dactylon), Surinam grass (Brachiaria decumbens), crabgrass, large (large crabgrass, Digitaria sanguinalis), crabgrass, naked (naked crabgrass, Digitaria nuda), foxtail, green (green foxtail, Setaria viridis), johnsongrass (Sorghum halepense), kochia (Kochia scoparia), morningglory (pitted morningglory, Ipomoea lacunosa), nutsedge, purple (purple nutsedge, Cyperus rotundus), ragweed (common ragweed, Ambrosia elation), mustard, black (black mustard, Brassica nigra), guineagrass (Panicum maximum), dallisgrass (Paspalum dilatatum), barnyardgrass (Echinochloa crus-galli), sandbur (southern sandbur, Cenchrus echinatus), sowthistle (common sowthistle, Sonchus oleraceous), ryegrass, Italian (Italian ryegrass, Lolium multiflorum), signalgrass (broadleaf signalgrass, Brachiaria platyphylla), dayflower, VA (Virginia (VA) dayflower, Commelina virginica), bluegrass (annual bluegrass, Poa annua), quackgrass (Elytrigia repens), mallow (common mallow, Malva sylvestris), buckwheat, wild (wild buckwheat, Polygonum convolvulus), leafy spurge (Euphorbia esula), common chickweed (Stellaria media), wild poinsettia (Euphorbia heterophylla), pigweed, palmer (palmer pigweed, Amaranthus palmeri), and pigweed (redroot pigweed, Amaranthus retroflexus) were planted into a blend of loam soil and sand and treated preemergence with test chemicals formulated in a non-phytotoxic solvent mixture which included a surfactant.
(§4) Treated plants and controls were maintained in a greenhouse for 21 days, after which time all species were compared to controls and visually evaluated. Plant response ratings, summarized in Table E, are based on a scale of 0 to 100 where 0 is no effect and 100 is complete control. A dash (-) response means no test result.

[3] = system: southern sandbur; test: Test F postemergence; assay type: in vivo, Cenchrus echinatus; conditions: scale 0 to 100
From the text: as §1, §2

[4] = system: mallow; test: Test E preemergence; assay type: in vivo, Malva sylvestris; conditions: 21 days, scale 0 to 100
From the text: as §3, §4

[5] = system: ragweed; test: Test E preemergence; assay type: in vivo, Ambrosia elation; conditions: 21 days, scale 0 to 100
From the text: as §3, §4

[6] = system: wild poinsettia; test: Test E preemergence; assay type: in vivo, Euphorbia heterophylla; conditions: 21 days, scale 0 to 100
From the text: as §3, §4

[7] = system: ducksalad; test: Test C flooded paddy test; assay type: in vivo, Heteranthera limosa; conditions: Flood
Method in brief: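 Visual injury ratings against untreated controls, taken 13 to 15 days after compound was added to paddy water standing 3 cm above the soil.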

[8] = 31 g ai/ha, scale 0 to 100 (0 no effect, 100 complete control)
[9] = 62 g ai/ha, scale 0 to 100 (0 no effect, 100 complete control)
[10] = 125 g ai/ha, scale 0 to 100 (0 no effect, 100 complete control)

SMILES: CCc1cc(C(=O)NCC(F)(F)F)nn1Cc1ccnc(C(F)(F)F)c1 [Compound 78, 5-ethyl-N-(2,2,2-trifluoroethyl)-1-[[(2-trifluoromethyl)-4-pyridinyl]methyl]-1H-pyrazole-3-carboxamide]
- Plant response rating, Barnyardgrass ([1]; Postemergence, 31 g ai/ha): 5
- Plant response rating, Barnyardgrass ([1]; Postemergence, 125 g ai/ha): 40
- Plant response rating, Barnyardgrass ([1]; Postemergence, 250 g ai/ha): 70
- Plant response rating, Barnyardgrass ([1]; postemergence, 62 g ai/ha): 30
- Plant response rating, Barnyardgrass ([1]; postemergence, 500 g ai/ha): 90
- Plant response rating, Sandbur ([2]; 16 g ai/ha): 40
- Plant response rating, Sandbur ([2]; 31 g ai/ha): 50
- Plant response rating, Sandbur ([2]; 62 g ai/ha): 90
- Plant response rating, Sandbur ([2]; 125 g ai/ha): 95
- Plant response rating, Sandbur ([2]; 250 g ai/ha): 100
- Plant response rating, Southern Sandbur ([3]; Postemergence, 31 g ai/ha): 0
- Plant response rating, Southern Sandbur ([3]; Postemergence, 125 g ai/ha): 30
- Plant response rating, Southern Sandbur ([3]; Postemergence, 250 g ai/ha): 80
- Plant response rating, Southern Sandbur ([3]; postemergence, 62 g ai/ha): 10
- Plant response rating, Southern Sandbur ([3]; postemergence, 500 g ai/ha): 90
- Plant response rating, Mallow ([4]; 16 g ai/ha): 100
- Plant response rating, Mallow ([4]; 31 g ai/ha): 100
- Plant response rating, Mallow ([4]; 62 g ai/ha): 100
- Plant response rating, Mallow ([4]; 125 g ai/ha): 100
- Plant response rating, Mallow ([4]; 250 g ai/ha): 100
- Plant response rating, Ragweed ([5]; 16 g ai/ha): 75
- Plant response rating, Ragweed ([5]; 31 g ai/ha): 100
- Plant response rating, Ragweed ([5]; 62 g ai/ha): 100
- Plant response rating, Ragweed ([5]; 125 g ai/ha): 100
- Plant response rating, Ragweed ([5]; 250 g ai/ha): 100

SMILES: CCc1cc(C(=O)NC(C)C)nn1Cc1ccnc(C(F)(F)F)c1 [Compound 103]
- Plant response rating, Sandbur ([2]; 16 g ai/ha): 40
- Plant response rating, Sandbur ([2]; 31 g ai/ha): 70
- Plant response rating, Sandbur ([2]; 62 g ai/ha): 100
- Plant response rating, Sandbur ([2]; 125 g ai/ha): 100
- Plant response rating, Sandbur ([2]; 250 g ai/ha): 100
- Plant response rating, Wild Poinsettia ([6]; 16 g ai/ha): 80
- Plant response rating, Wild Poinsettia ([6]; 31 g ai/ha): 95
- Plant response rating, Wild Poinsettia ([6]; 62 g ai/ha): 100
- Plant response rating, Wild Poinsettia ([6]; 125 g ai/ha): 100
- Plant response rating, Wild Poinsettia ([6]; 250 g ai/ha): 100
- Plant response rating, Mallow ([4]; 16 g ai/ha): 95
- Plant response rating, Mallow ([4]; 31 g ai/ha): 98
- Plant response rating, Mallow ([4]; 62 g ai/ha): 98
- Plant response rating, Mallow ([4]; 125 g ai/ha): 100
- Plant response rating, Mallow ([4]; 250 g ai/ha): 100
- Plant response rating, Ragweed ([5]; 16 g ai/ha): 5
- Plant response rating, Ragweed ([5]; 31 g ai/ha): 98
- Plant response rating, Ragweed ([5]; 62 g ai/ha): 100
- Plant response rating, Ragweed ([5]; 125 g ai/ha): 100
- Plant response rating, Ragweed ([5]; 250 g ai/ha): 100

SMILES: CCCNC(=O)c1cc(CCCl)n(Cc2ccnc(C(F)(F)F)c2)n1 [Compound 145]
- Plant response rating, Ducksalad [7, 8]: 100
- Plant response rating, Ducksalad [7, 9]: 100
- Plant response rating, Ducksalad ([7]; 125 g ai/ha, scale 0 to 100): 100
- Plant response rating, Ducksalad ([7]; 250 g ai/ha, scale 0 to 100): 100

SMILES: CCOc1cc(C(=O)NC(C)C)nn1Cc1ccnc(C(F)(F)F)c1 [Compound 188]
- Plant response rating, Barnyardgrass ([1]; Postemergence, 31 g ai/ha): 0
- Plant response rating, Barnyardgrass ([1]; Postemergence, 125 g ai/ha): 50
- Plant response rating, Barnyardgrass ([1]; Postemergence, 250 g ai/ha): 60
- Plant response rating, Barnyardgrass ([1]; postemergence, 62 g ai/ha): 20
- Plant response rating, Barnyardgrass ([1]; postemergence, 500 g ai/ha): 95
- Plant response rating, Southern Sandbur ([3]; Postemergence, 31 g ai/ha): 0
- Plant response rating, Southern Sandbur ([3]; Postemergence, 125 g ai/ha): 50
- Plant response rating, Southern Sandbur ([3]; Postemergence, 250 g ai/ha): 70
- Plant response rating, Southern Sandbur ([3]; postemergence, 62 g ai/ha): 20
- Plant response rating, Southern Sandbur ([3]; postemergence, 500 g ai/ha): 90

SMILES: CCOc1cc(C(=O)NC2CC2)nn1Cc1ccnc(C(F)(F)F)c1 [Compound 189]
- Plant response rating, Sandbur ([2]; 4 g ai/ha): 0
- Plant response rating, Sandbur ([2]; 8 g ai/ha): 0
- Plant response rating, Sandbur ([2]; 16 g ai/ha): 0
- Plant response rating, Sandbur ([2]; 31 g ai/ha): 20
- Plant response rating, Sandbur ([2]; 62 g ai/ha): 90
- Plant response rating, Wild Poinsettia ([6]; 4 g ai/ha): 10
- Plant response rating, Wild Poinsettia ([6]; 8 g ai/ha): 25
- Plant response rating, Wild Poinsettia ([6]; 16 g ai/ha): 65
- Plant response rating, Wild Poinsettia ([6]; 31 g ai/ha): 95
- Plant response rating, Wild Poinsettia ([6]; 62 g ai/ha): 100
- Plant response rating, Mallow ([4]; 4 g ai/ha): 90
- Plant response rating, Mallow ([4]; 8 g ai/ha): 65
- Plant response rating, Mallow ([4]; 16 g ai/ha): 100
- Plant response rating, Mallow ([4]; 31 g ai/ha): 98
- Plant response rating, Mallow ([4]; 62 g ai/ha): 100
- Plant response rating, Ragweed ([5]; 8 g ai/ha): 95
- Plant response rating, Ragweed ([5]; 16 g ai/ha): 100
- Plant response rating, Ragweed ([5]; 31 g ai/ha): 100
- Plant response rating, Ragweed ([5]; 62 g ai/ha): 100

SMILES: CCONC(=O)c1cc(OCC)n(Cc2ccnc(C(F)(F)F)c2)n1 [Compound 195]
- Plant response rating, Ducksalad [7, 8]: 0
- Plant response rating, Ducksalad [7, 9]: 20
- Plant response rating, Ducksalad [7, 10]: 85
- Plant response rating, Ducksalad ([7]; 250 g ai/ha, scale 0 to 100): 85

SMILES: CCc1cc(C(=O)NC2CC2)nn1Cc1ccnc(OCC(F)(F)F)c1 [Compound 200]
- Plant response rating, Ducksalad [7, 8]: 30
- Plant response rating, Ducksalad [7, 9]: 30
- Plant response rating, Ducksalad [7, 10]: 100
- Plant response rating, Ducksalad ([7]; 250 g ai/ha, scale 0 to 100): 100

SMILES: CCc1cc(C(=O)NC2CC2)nn1Cc1cc(C(F)(F)C(F)(F)F)nn1C [Compound 226]
- Plant response rating, Ducksalad [7, 8]: 30
- Plant response rating, Ducksalad [7, 9]: 60
- Plant response rating, Ducksalad [7, 10]: 75

From US20150105252A1, “SUBSTITUTED PYRAZOLES AS HERBICIDES” (E I DU PONT DE NEMOURS AND COMPANY, priority 2013, published 2015)
